The source made the active and inactive calls. No rule for the calls is given here.
Test system: CCRIS mutagenicity, Ames/micronucleus/aberration tests
Experiment: CCRIS mutagenicity studies
[1] = Test System: AMES SALMONELLA TYPHIMURIUM, Strain/Indicator: TA98, Metabolic Activation: HAMSTER, LIVER, S-9, AROCLOR 1254 (10%), Method: PREINCUBATION
[2] = Test System: AMES SALMONELLA TYPHIMURIUM, Strain/Indicator: TA98, Metabolic Activation: NONE, Method: PREINCUBATION
[3] = Test System: AMES SALMONELLA TYPHIMURIUM, Strain/Indicator: TA98, Metabolic Activation: NONE, Method: STANDARD PLATE
[4] = Test System: AMES SALMONELLA TYPHIMURIUM, Strain/Indicator: TA98, Metabolic Activation: RAT, LIVER, S-9, AROCLOR 1254 (10%), Method: PREINCUBATION
[5] = Test System: AMES SALMONELLA TYPHIMURIUM, Strain/Indicator: TA98, Metabolic Activation: RAT, LIVER, S-9, AROCLOR 1254, Method: STANDARD PLATE
[6] = Test System: AMES SALMONELLA TYPHIMURIUM, Strain/Indicator: TA100, Metabolic Activation: HAMSTER, LIVER, S-9, AROCLOR 1254 (10%), Method: PREINCUBATION
[7] = Test System: AMES SALMONELLA TYPHIMURIUM, Strain/Indicator: TA100, Metabolic Activation: NONE, Method: PREINCUBATION
[8] = Test System: AMES SALMONELLA TYPHIMURIUM, Strain/Indicator: TA100, Metabolic Activation: NONE, Method: STANDARD PLATE
[9] = Test System: AMES SALMONELLA TYPHIMURIUM, Strain/Indicator: TA100, Metabolic Activation: RAT, LIVER, S-9, AROCLOR 1254 (10%), Method: PREINCUBATION
[10] = Test System: AMES SALMONELLA TYPHIMURIUM, Strain/Indicator: TA100, Metabolic Activation: RAT, LIVER, S-9, AROCLOR 1254, Method: STANDARD PLATE
[11] = Test System: AMES SALMONELLA TYPHIMURIUM, Strain/Indicator: TA1535, Metabolic Activation: HAMSTER, LIVER, S-9, AROCLOR 1254 (10%), Method: PREINCUBATION
[12] = Test System: AMES SALMONELLA TYPHIMURIUM, Strain/Indicator: TA1535, Metabolic Activation: NONE, Method: PREINCUBATION
[13] = Test System: AMES SALMONELLA TYPHIMURIUM, Strain/Indicator: TA1535, Metabolic Activation: NONE, Method: STANDARD PLATE
[14] = Test System: AMES SALMONELLA TYPHIMURIUM, Strain/Indicator: TA1535, Metabolic Activation: RAT, LIVER, S-9, AROCLOR 1254 (10%), Method: PREINCUBATION
[15] = Test System: AMES SALMONELLA TYPHIMURIUM, Strain/Indicator: TA1535, Metabolic Activation: RAT, LIVER, S-9, AROCLOR 1254, Method: STANDARD PLATE
[16] = Test System: AMES SALMONELLA TYPHIMURIUM, Strain/Indicator: TA1537, Metabolic Activation: HAMSTER, LIVER, S-9, AROCLOR 1254 (10%), Method: PREINCUBATION
[17] = Test System: AMES SALMONELLA TYPHIMURIUM, Strain/Indicator: TA1537, Metabolic Activation: NONE, Method: PREINCUBATION
[18] = Test System: AMES SALMONELLA TYPHIMURIUM, Strain/Indicator: TA1537, Metabolic Activation: NONE, Method: STANDARD PLATE
[19] = Test System: AMES SALMONELLA TYPHIMURIUM, Strain/Indicator: TA1537, Metabolic Activation: RAT, LIVER, S-9, AROCLOR 1254 (10%), Method: PREINCUBATION
[20] = Test System: AMES SALMONELLA TYPHIMURIUM, Strain/Indicator: TA1537, Metabolic Activation: RAT, LIVER, S-9, AROCLOR 1254, Method: STANDARD PLATE
[21] = Test System: AMES SALMONELLA TYPHIMURIUM, Strain/Indicator: TA1538, Metabolic Activation: NONE, Method: STANDARD PLATE
[22] = Test System: AMES SALMONELLA TYPHIMURIUM, Strain/Indicator: TA1538, Metabolic Activation: RAT, LIVER, S-9, AROCLOR 1254, Method: STANDARD PLATE

With `O.[Al+3].[Al+3].[Na+].[Na+].[O-2].[O-2].[O-2].[O-2].[O-2].[O-2].[Si+4]` the mutagenic call [1] was “inactive; negative”, the mutagenic call [2] was “inactive; negative” and the mutagenic call [3] was “inactive; negative”. For the same molecule, the mutagenic call [4] was “inactive; negative”, the mutagenic call [5] was “inactive; negative” and the mutagenic call [6] was “inactive; negative”. The mutagenic call [7] was “inactive; negative”, the mutagenic call [8] was “inactive; negative” and the mutagenic call [9] was “inactive; negative”. For the same molecule, the mutagenic call [10] was “inactive; negative”, the mutagenic call [11] was “inactive; negative” and the mutagenic call [12] was “inactive; negative”. The mutagenic call [13] was “inactive; negative”, the mutagenic call [14] was “inactive; negative” and the mutagenic call [15] was “inactive; negative”. For the same molecule, the mutagenic call [16] was “inactive; negative”, the mutagenic call [17] was “inactive; negative” and the mutagenic call [18] was “inactive; negative”. For the same molecule, the mutagenic call [19] was “inactive; negative”, the mutagenic call [20] was “inactive; negative” and the mutagenic call [21] was “inactive; negative”. The mutagenic call [22] was “inactive; negative”, the mutagenic call (Test System: E. COLI, Strain/Indicator: WP2, Metabolic Activation: NONE, Method: STANDARD PLATE) was “inactive; negative” and the mutagenic call (Test System: E. COLI, Strain/Indicator: WP2, Metabolic Activation: RAT, LIVER, S-9, AROCLOR 1254, Method: STANDARD PLATE) was “inactive; negative”.

With `Cc1ccc2ccc3cc4ccccc4c4ccc1c2c34` the mutagenic call (Test System: AMES SALMONELLA TYPHIMURIUM, Strain/Indicator: TA100, Metabolic Activation: RAT, INTACT HEPATOCYTES, AROCLOR 1254, Method: PREINCUBATION) was “active; positive” and the mutagenic call (Test System: AMES SALMONELLA TYPHIMURIUM, Strain/Indicator: TA100, Metabolic Activation: RAT, NADPH-FORTIFIED HOMOGENIZED HEPATOCYTES, AROCLOR 1254, Method: PREINCUBATION) was “active; positive”.

`Cc1ccc2cc3c(c4c2c1CC4)C1OC1c1ccccc1-3` (stereo not given) was tested, and the mutagenic call [3] was “active; positive”, the mutagenic call [8] was “active; positive” and the mutagenic call (Test System: CHINESE HAMSTER V-79, Strain/Indicator: V-79/8-AZAGUANINE, Metabolic Activation: NONE, Method: STANDARD PLATE) was “active; positive”.

With `ClC(Br)Br` the mutagenic call (End Point: IN VITRO CHROMOSOMAL ABERRATIONS, Test System: CHINESE HAMSTER LUNG FIBROBLAST CELLS (CHL/IU), Metabolic Activation: RAT, LIVER, S-9, PHENOBARBITAL AND 5,6-BENZOFLAVONE) was “inactive; negative; authors describe as weakly positive”, the mutagenic call (End Point: IN VITRO CHROMOSOMAL ABERRATIONS, Test System: CHO-LB CELLS, Metabolic Activation: NONE) was “inactive; negative” and the mutagenic call (End Point: IN VIVO MICRONUCLEUS, Test System: BONE MARROW POLYCHROMATIC ERYTHROCYTES, Species: MOUSE, Strain/Sex: DDY/MALE, Route: IP) was “inactive; negative”. The mutagenic call (Test System: AMES SALMONELLA TYPHIMURIUM, Strain/Indicator: RSJ100, Metabolic Activation: NONE, Method: STANDARD PLATE) was “active; positive”, the mutagenic call [1] was “inactive; negative” and the mutagenic call (Test System: AMES SALMONELLA TYPHIMURIUM, Strain/Indicator: TA98, Metabolic Activation: HAMSTER, LIVER, S-9, AROCLOR 1254, Method: PREINCUBATION) was “inactive; negative”. The mutagenic call [2] was “inactive; negative”, the mutagenic call [3] was “inactive; negative” and the mutagenic call [4] was “inactive; negative”. For the same molecule, the mutagenic call (Test System: AMES SALMONELLA TYPHIMURIUM, Strain/Indicator: TA98, Metabolic Activation: RAT, LIVER, S-9, AROCLOR 1254, Method: PREINCUBATION) was “inactive; negative”, the mutagenic call [5] was “active; positive” and the mutagenic call [6] was “inactive; negative”. For the same molecule, the mutagenic call (Test System: AMES SALMONELLA TYPHIMURIUM, Strain/Indicator: TA100, Metabolic Activation: HAMSTER, LIVER, S-9, AROCLOR 1254, Method: PREINCUBATION) was “inactive; negative”, the mutagenic call (Test System: AMES SALMONELLA TYPHIMURIUM, Strain/Indicator: TA100, Metabolic Activation: NONE, Method: DESICCATOR) was “active; positive” and the mutagenic call (Test System: AMES SALMONELLA TYPHIMURIUM, Strain/Indicator: TA100, Metabolic Activation: NONE, Method: FLUCTUATION TEST) was “inactive; negative”. For the same molecule, the mutagenic call [7] was “inactive; negative”, the mutagenic call [8] was “inactive; negative” and the mutagenic call [9] was “inactive; negative”. The mutagenic call (Test System: AMES SALMONELLA TYPHIMURIUM, Strain/Indicator: TA100, Metabolic Activation: RAT, LIVER, S-9, AROCLOR 1254, Method: FLUCTUATION TEST) was “inactive; negative”, the mutagenic call (Test System: AMES SALMONELLA TYPHIMURIUM, Strain/Indicator: TA100, Metabolic Activation: RAT, LIVER, S-9, AROCLOR 1254, Method: PREINCUBATION) was “inactive; negative” and the mutagenic call [10] was “active; positive”. The mutagenic call [11] was “inactive; negative”, the mutagenic call (Test System: AMES SALMONELLA TYPHIMURIUM, Strain/Indicator: TA1535, Metabolic Activation: HAMSTER, LIVER, S-9, AROCLOR 1254, Method: PREINCUBATION) was “inactive; negative” and the mutagenic call [12] was “inactive; negative”. The mutagenic call [13] was “active; positive”, the mutagenic call [14] was “inactive; negative” and the mutagenic call (Test System: AMES SALMONELLA TYPHIMURIUM, Strain/Indicator: TA1535, Metabolic Activation: RAT, LIVER, S-9, AROCLOR 1254, Method: PREINCUBATION) was “inactive; negative”. For the same molecule, the mutagenic call [15] was “active; positive”, the mutagenic call [16] was “inactive; negative” and the mutagenic call (Test System: AMES SALMONELLA TYPHIMURIUM, Strain/Indicator: TA1537, Metabolic Activation: HAMSTER, LIVER, S-9, AROCLOR 1254, Method: PREINCUBATION) was “inactive; negative”. For the same molecule, the mutagenic call [17] was “inactive; negative”, the mutagenic call [18] was “active; positive” and the mutagenic call [19] was “inactive; negative”. The mutagenic call (Test System: AMES SALMONELLA TYPHIMURIUM, Strain/Indicator: TA1537, Metabolic Activation: RAT, LIVER, S-9, AROCLOR 1254, Method: PREINCUBATION) was “inactive; negative”, the mutagenic call [20] was “active; positive” and the mutagenic call (Test System: MOUSE LYMPHOMA, Strain/Indicator: L5178Y (TK+/TK-), Metabolic Activation: NONE, Method: MICROWELL) was “inactive; negative”. For the same molecule, the mutagenic call (Test System: MOUSE LYMPHOMA, Strain/Indicator: L5178Y (TK+/TK-), Metabolic Activation: NONE, Method: SUSPENSION/PLATE) was “active; positive”, the mutagenic call (Test System: MOUSE LYMPHOMA, Strain/Indicator: L5178Y (TK+/TK-), Metabolic Activation: S-9, Method: MICROWELL) was “active; positive” and the mutagenic call (Test System: UDS RAT HEPATOCYTES, Strain/Indicator: THY INCORP, Metabolic Activation: NONE, Method: AUTORADIOGRAPHY) was “inactive; negative”.

In the case of `CCN(CC)c1ccc(-c2ccccc2)c(-c2ccccc2)c1N(CC)CC`, the mutagenic call [21] is reported as “active; positive” and the mutagenic call [22] is reported as “active; positive”.

— PubChem BioAssay AID1259407 (Chemical Carcinogenesis Research Information System (CCRIS), 2018)
